Laboratory results reported in ChEMBL document CHEMBL5291721, “A preclinical secondary pharmacology resource illuminates target-adverse drug reaction associations of marketed drugs” (Nat Commun, 2023).

Experiments:
[1] = molecular target: T1, B2 bradykinin receptor (Homo sapiens, UniProt P30411)
T1 sequence (P30411 whole entry): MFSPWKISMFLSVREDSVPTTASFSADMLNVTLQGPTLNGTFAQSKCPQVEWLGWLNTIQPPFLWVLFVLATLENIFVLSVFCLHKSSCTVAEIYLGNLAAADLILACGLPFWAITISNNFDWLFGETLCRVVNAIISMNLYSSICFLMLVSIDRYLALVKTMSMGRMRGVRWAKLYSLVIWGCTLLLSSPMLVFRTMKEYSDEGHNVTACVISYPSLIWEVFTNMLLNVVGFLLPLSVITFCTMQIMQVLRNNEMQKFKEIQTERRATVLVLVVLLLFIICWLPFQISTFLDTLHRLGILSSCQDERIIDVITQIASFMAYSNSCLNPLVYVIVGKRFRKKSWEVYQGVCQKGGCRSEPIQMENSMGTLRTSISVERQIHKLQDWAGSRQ

[2] = molecular target: Sodium-dependent dopamine transporter (Homo sapiens, UniProt Q01959)
Sodium-dependent dopamine transporter, sequence (Q01959 whole entry): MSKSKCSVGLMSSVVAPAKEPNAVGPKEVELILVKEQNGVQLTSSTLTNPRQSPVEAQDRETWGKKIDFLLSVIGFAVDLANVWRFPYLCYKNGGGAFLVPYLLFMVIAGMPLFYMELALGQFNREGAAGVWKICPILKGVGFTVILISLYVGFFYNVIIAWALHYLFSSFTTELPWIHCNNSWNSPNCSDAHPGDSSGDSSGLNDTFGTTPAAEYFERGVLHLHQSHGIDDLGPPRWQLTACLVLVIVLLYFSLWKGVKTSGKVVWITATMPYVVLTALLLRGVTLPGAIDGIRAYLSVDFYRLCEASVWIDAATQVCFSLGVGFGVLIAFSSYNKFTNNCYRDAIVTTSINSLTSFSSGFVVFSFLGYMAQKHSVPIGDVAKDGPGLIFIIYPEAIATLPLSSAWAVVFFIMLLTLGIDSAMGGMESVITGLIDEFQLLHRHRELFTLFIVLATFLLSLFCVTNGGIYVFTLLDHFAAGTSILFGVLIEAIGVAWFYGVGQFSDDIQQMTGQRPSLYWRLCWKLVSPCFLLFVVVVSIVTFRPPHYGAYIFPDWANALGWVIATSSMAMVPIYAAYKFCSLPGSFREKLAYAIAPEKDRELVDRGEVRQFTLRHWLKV

[3] = molecular target: T2, Neuropeptide Y receptor type 1 (Homo sapiens, UniProt P25929)
T2 sequence (P25929 whole entry): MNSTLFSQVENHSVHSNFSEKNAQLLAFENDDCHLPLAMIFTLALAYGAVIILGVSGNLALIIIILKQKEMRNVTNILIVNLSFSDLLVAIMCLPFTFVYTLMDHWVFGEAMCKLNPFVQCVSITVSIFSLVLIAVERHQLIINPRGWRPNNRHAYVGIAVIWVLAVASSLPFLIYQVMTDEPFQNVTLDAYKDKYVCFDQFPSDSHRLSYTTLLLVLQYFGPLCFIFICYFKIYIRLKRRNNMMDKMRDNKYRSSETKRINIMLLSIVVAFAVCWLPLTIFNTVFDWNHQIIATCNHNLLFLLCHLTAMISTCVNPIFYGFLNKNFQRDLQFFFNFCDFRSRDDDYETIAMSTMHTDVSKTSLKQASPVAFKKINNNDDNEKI

[4] = molecular target: Cannabinoid receptor 1 (Homo sapiens, UniProt P21554); format: functional, cell-based
Cannabinoid receptor 1, sequence (P21554 whole entry): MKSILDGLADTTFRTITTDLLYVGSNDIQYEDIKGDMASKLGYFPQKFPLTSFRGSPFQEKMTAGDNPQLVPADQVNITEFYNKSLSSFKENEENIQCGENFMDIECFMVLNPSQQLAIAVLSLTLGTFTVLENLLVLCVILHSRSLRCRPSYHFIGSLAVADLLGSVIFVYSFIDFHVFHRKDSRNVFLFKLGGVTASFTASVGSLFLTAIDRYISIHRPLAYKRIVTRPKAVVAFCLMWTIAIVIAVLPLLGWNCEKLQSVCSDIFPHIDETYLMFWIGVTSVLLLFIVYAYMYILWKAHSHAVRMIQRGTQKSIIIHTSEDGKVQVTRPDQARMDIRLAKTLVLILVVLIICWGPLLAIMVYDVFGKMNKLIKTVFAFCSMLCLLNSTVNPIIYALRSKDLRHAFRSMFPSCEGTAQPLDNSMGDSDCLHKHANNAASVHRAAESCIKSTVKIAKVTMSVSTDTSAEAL

[5] = molecular target: T3, Prostaglandin G/H synthase 1 (Rattus norvegicus, UniProt Q63921); format: functional
T3 sequence (Q63921 whole entry): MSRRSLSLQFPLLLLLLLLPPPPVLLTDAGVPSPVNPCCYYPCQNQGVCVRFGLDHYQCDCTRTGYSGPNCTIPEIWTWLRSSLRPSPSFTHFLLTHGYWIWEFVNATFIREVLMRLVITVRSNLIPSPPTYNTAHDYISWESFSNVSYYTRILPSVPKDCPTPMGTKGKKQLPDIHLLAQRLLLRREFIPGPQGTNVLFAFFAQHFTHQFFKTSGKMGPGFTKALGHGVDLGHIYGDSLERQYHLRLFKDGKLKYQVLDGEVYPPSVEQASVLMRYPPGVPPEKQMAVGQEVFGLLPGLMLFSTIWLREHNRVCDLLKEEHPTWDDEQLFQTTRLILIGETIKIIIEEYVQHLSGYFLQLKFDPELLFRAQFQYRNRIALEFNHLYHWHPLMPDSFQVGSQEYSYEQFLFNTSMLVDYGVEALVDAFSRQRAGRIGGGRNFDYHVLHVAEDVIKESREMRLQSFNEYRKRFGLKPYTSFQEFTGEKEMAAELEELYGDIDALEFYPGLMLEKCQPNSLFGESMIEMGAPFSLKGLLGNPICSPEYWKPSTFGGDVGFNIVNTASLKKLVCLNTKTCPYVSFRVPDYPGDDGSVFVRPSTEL

[6] = molecular target: T4, Alpha-2A adrenergic receptor (Homo sapiens, UniProt P08913); format: functional, cell-based
T4 sequence (P08913 whole entry): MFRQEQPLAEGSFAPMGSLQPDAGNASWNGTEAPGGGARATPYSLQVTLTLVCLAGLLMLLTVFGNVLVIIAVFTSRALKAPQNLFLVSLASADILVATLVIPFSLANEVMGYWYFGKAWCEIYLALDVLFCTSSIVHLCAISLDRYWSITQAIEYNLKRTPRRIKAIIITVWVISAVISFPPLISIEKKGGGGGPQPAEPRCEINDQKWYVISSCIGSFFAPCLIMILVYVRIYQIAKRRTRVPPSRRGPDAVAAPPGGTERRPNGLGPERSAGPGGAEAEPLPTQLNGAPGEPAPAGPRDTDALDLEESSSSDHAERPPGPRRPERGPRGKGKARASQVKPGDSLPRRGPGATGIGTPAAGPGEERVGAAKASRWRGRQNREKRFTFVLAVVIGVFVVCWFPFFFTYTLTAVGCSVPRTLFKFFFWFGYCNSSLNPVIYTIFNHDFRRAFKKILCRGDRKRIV

[7] = molecular target: Muscarinic acetylcholine receptor M3 (Homo sapiens, UniProt P20309)
Muscarinic acetylcholine receptor M3, sequence (P20309 whole entry): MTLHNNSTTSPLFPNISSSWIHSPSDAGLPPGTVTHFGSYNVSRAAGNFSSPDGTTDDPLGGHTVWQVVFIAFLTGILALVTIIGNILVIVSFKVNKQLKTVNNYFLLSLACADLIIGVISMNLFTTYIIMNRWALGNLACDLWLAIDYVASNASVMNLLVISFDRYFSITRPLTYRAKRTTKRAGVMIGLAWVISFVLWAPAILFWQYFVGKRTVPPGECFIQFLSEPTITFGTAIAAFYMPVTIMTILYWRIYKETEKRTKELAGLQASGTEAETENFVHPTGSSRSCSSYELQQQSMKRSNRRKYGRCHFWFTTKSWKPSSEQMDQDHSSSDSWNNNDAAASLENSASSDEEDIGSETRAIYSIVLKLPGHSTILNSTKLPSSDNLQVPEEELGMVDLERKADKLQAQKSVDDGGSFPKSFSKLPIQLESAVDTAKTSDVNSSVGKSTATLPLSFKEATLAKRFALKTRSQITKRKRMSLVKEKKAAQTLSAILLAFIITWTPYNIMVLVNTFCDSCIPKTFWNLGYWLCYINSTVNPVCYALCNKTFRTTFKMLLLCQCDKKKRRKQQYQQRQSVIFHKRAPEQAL

[8] = molecular target: 5-hydroxytryptamine receptor 2A (Homo sapiens, UniProt P28223); format: functional, cell-based
5-hydroxytryptamine receptor 2A, sequence (P28223 whole entry): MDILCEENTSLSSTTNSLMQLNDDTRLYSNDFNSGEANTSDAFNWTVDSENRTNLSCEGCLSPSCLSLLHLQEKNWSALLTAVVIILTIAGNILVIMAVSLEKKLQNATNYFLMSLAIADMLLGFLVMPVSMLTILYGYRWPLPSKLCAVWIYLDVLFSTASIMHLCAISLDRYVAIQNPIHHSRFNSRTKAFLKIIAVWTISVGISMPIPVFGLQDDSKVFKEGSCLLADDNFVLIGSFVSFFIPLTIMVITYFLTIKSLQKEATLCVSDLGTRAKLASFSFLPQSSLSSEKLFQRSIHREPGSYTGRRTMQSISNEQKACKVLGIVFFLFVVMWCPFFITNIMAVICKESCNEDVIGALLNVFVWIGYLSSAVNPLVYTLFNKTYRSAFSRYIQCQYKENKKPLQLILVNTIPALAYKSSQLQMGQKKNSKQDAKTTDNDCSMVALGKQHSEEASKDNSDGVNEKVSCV

[9] = molecular target: T5, Equilibrative nucleoside transporter 1 (Homo sapiens, UniProt Q99808)
T5 sequence (Q99808 whole entry): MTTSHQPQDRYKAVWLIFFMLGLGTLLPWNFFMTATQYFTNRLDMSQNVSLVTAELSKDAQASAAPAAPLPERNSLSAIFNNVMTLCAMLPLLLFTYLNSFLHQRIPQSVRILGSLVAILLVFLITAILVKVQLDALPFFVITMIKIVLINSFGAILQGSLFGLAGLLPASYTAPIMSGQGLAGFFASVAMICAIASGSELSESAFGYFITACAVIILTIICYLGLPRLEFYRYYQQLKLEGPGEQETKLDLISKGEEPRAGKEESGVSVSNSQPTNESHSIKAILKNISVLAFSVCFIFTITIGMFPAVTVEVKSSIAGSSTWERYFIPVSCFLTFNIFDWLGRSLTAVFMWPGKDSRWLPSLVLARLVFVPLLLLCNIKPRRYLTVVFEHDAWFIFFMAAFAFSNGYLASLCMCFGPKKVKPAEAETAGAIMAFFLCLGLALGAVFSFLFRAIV

[10] = molecular target: T6, Thromboxane A2 receptor (Homo sapiens, UniProt P21731)
T6 sequence (P21731 whole entry): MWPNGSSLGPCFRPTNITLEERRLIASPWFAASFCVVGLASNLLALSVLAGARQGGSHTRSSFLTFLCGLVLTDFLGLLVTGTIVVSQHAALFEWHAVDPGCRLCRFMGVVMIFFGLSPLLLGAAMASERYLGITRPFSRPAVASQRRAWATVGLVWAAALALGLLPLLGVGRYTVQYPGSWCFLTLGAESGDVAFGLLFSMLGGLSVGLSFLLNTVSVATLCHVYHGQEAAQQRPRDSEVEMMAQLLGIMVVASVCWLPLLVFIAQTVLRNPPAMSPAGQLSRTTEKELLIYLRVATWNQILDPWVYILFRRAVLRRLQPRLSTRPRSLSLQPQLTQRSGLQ
Note: assay procedure not described here.

## CCOC(=O)Nc1ccc2c(c1)N(C(=O)CCN1CCOCC1)c1ccccc1S2 [MORICIZINE]
[1]
  AC50: > 30 µM
[2]
  AC50: > 30 µM
[3]
  AC50: > 30 µM
[4]
  AC50: > 30 µM
[5]
  AC50: > 30 µM
[6]
  AC50: > 30 µM
[7]
  AC50: > 30 µM
[8]
  AC50: > 30 µM
[9]
  AC50: > 30 µM

## CC[N+]1(C)CCCC(OC(=O)C(O)(c2ccccc2)c2ccccc2)C1 (stereo unspecified) [PIPENZOLATE]
[1]
  AC50: > 30 µM
[2]
  AC50: > 30 µM
[3]
  AC50: > 30 µM
[4]
  AC50: > 30 µM
[5]
  AC50: > 30 µM
[6]
  AC50: > 30 µM
[7]
  AC50: 0.019 µM
[8]
  AC50: > 30 µM
[10]
  AC50: > 30 µM

## CC(=O)c1ccc2c(c1)N(CCCN1CCC(CCO)CC1)c1ccccc1S2 [PIPERACETAZINE]
[1]
  AC50: > 30 µM
[2]
  AC50: 7.6 µM
[3]
  AC50: > 30 µM
[4]
  AC50: > 30 µM
[5]
  AC50: > 30 µM
[7]
  AC50: 9.5 µM
[8]
  AC50: 0.3 µM
[10]
  AC50: > 30 µM
[9]
  AC50: > 30 µM

## CCN(CC)CC(=O)Oc1ccc(NC(C)=O)cc1 [PROPACETAMOL]
[1]
  AC50: > 30 µM
[2]
  AC50: > 30 µM
[3]
  AC50: > 30 µM
[4]
  AC50: > 30 µM
[6]
  AC50: > 30 µM
[7]
  AC50: > 30 µM
[8]
  AC50: > 30 µM
[10]
  AC50: > 30 µM
[9]
  AC50: > 30 µM

## Cc1ccc2c(-c3ccccc3)nc(=O)n(C(C)C)c2c1 [PROQUAZONE]
[1]
  AC50: > 10 µM
[2]
  AC50: > 30 µM
[3]
  AC50: > 30 µM
[4]
  AC50: > 30 µM
[5]
  AC50: 0.2 µM
[6]
  AC50: 28 µM
[7]
  AC50: > 30 µM
[8]
  AC50: > 30 µM
[10]
  AC50: 11 µM

## CN1CCN(c2c(F)cc3c(=O)c(C(=O)O)cn4c3c2SCC4)CC1 [RUFLOXACIN]
[1]
  AC50: > 30 µM
[2]
  AC50: > 30 µM
[3]
  AC50: > 30 µM
[4]
  AC50: > 30 µM
[5]
  AC50: > 30 µM
[6]
  AC50: > 30 µM
[7]
  AC50: > 30 µM
[8]
  AC50: > 30 µM
[10]
  AC50: > 30 µM

## COc1c(O[C@@H]2O[C@H](CO)[C@@H](O)[C@H](O)[C@H]2O)cc2c(c1OC)-c1ccc(SC)c(=O)cc1[C@@H](NC(C)=O)CC2 [THIOCOLCHICOSIDE]
[1]
  AC50: > 30 µM
[2]
  AC50: > 30 µM
[3]
  AC50: > 30 µM
[4]
  AC50: > 30 µM
[5]
  AC50: > 30 µM
[6]
  AC50: > 30 µM
[7]
  AC50: > 30 µM
[8]
  AC50: > 30 µM
[10]
  AC50: > 30 µM

## CN1c2ccccc2C(NCCCCCCC(=O)O)c2ccc(Cl)cc2S1(=O)=O (stereo unspecified) [TIANEPTINE]
[1]
  AC50: > 30 µM
[2]
  AC50: > 30 µM
[3]
  AC50: > 30 µM
[4]
  AC50: > 30 µM
[5]
  AC50: > 30 µM
[6]
  AC50: > 30 µM
[7]
  AC50: > 30 µM
[8]
  AC50: > 30 µM
[10]
  AC50: > 30 µM

## COc1cc2c(Nc3ccc(Br)cc3F)ncnc2cc1OCC1CCN(C)CC1 [VANDETANIB]
[1]
  AC50: > 10 µM
[2]
  AC50: 14 µM
[3]
  AC50: > 30 µM
[4]
  AC50: > 30 µM
[5]
  AC50: > 30 µM
[6]
  AC50: 2.1 µM
[7]
  AC50: 24 µM
[8]
  AC50: 14 µM
[9]
  AC50: > 30 µM
